Measured values from patent publication US20220275341A1, “ORGANOID MESODERM LINEAGE DIVERSIFICATION” (CHILDREN'S HOSPITAL MEDICAL CENTER, priority 2019, published 2022).

Tested on: hPSC-derived primitive splanchnic mesoderm (SM)
Experiment: Treatment of hPSC-derived primitive SM from d4-d7 with HH, RA, Wnt and BMP agonists or antagonists; RT-PCR, immunostaining, RNA-scope
Type: cell-based, human
Protocol: For RNAscope on mouse tissue, fixed embryos were immersed in 30% sucrose/PBS overnight, embedded in OCT, cryosectioned (12 μm) onto Superfrost Plus slides (Thermo Fisher) and stored at −80° C. overnight. For RNAscope of adherent hPSC culture, cells were differentiated on Geltrex-coated u-Slide 8 well (ibid) and fixed in 4% PFA at room temperature for 30 min, Cells were dehydrated with ethanol gradient and stored in 100% ethanol at −20° C. RNAscope fluorescent in situ hybridization was conducted with RNAscope Multiplex Fluorescent Detection Reagents V2 (Advanced Cell Diagnostics, Inc.) and Opal fluorophore (Akoya Biosciences) according to manufacturer's instructions.
Differentiation of hPSCs into lateral plate mesoderm was induced using previously described methods with modifications. In brief, partially confluent hPSCs were dissociated into very fine clumps in Accutase (Invitrogen) and passaged 1:18 onto new Geltrex-coated 24-well plates for immunocytochemistry and 12-well plates for RNA preparation in mTeSR1 with 1 μM thiazovivin (Tocris) (Day 1). […]
Total RNA was prepared from differentiating human ES cells by using Nucleospin kit according to manufacturer's protocol. […] Significance was determined by one-way ANOVA, followed by Tukey's test. […]

c1ccc2c(Oc3nc(Nc4ccc(N5CCOCC5)cc4)c4ncn(C5CCCCC5)c4n3)cccc2c1 [HH-agonist, purmorphamine]
gut tube identity: promoted
hepatic fate: efficiently blocked
